Experimental findings from US10000739B2, “Method and culture medium for improving pluripotent stem cell differentiation inducing efficiency” (NATIONAL UNIVERSITY CORPORATION KUMAMOTO UNIVERSITY, priority 2010, dated 2018) are described below.

This test relates to human iPS cells. The method, then:
For investigating an influence of a proline-added differentiation culture medium on differentiation into hepatocytes, differentiation of human iPS cells into liver precursor cells was induced using a liver differentiation culture medium containing proline added at a concentration of 1 mM.
On a gelatin-coated 96-well plate, mmcM15 cells were seeded as supporting cells. Human iPS cells were treated with Y27632 (10 μM) from 24 hours before seeding, and peeled using 0.25% trypsin. The peeled human iPS cells were seeded on mmcM15 cells at a cell concentration of 1×10^4 cells/well. The seeded human iPS cells were cultured for 24 hours under 37° C. and 5% CO2 in ES culture medium containing Y27632 and bFGF added. After 24 hours, the culture medium was changed to an endoderm differentiation culture medium (Day 0).
In the same manner as in Example 3, the endoderm differentiation culture medium was changed every other day and human iPS cells were cultured under 37° C. and 5% CO2, from the day of initiation of culturing (Day 0) to Day 8.
On Day 10, the culture medium was changed to a liver differentiation culture medium (2000KSR-DMEM culture medium, control culture medium) or Pro-containing 2000KSR-DMEM culture medium obtained by further adding 1 mM proline to a control culture medium, and human iPS cells were cultured until Day 19 under 37° C. and 5% CO2. During Day 10 to Day 19, the culture medium was changed every other day. On Day 19, human iPS cells were subjected to immunofluorescent staining with an anti-Oct3/4 antibody and an anti-AFP antibody.

Setting [1] is: Day 19, methionine deprivation Day 8 to Day 10 and/or 1 mM proline Day 10 to Day 19, vs control group.

Regarding `O=C(O)[C@@H]1CCCN1` [proline], under setting [1], the AFP positive cells result is given as “larger” and the Oct3/4 positive cells entry is “decreased”. Besides, under “proline 10 mM”, the “AFP and Oct3/4 positive cells” value is recorded as “the same result as in the case of 1 mM addition”.
